For 15 compounds, IC50 results are on record in US11759462B2, “Spirocyclic compounds as tryptophan hydroxylase inhibitors” (priority 2013, dated 2023).

In this assay the target is T1, Recombinant human TPH1 (MBP tagged) (Homo sapiens, UniProt P17752).
T1 construct: cloning full length human TPH1 cDNA in to a bacterial pMAL-c5E expression vector; made in house; host or cells: E. coli BL21 (DE3)
T1 sequence (P17752 1-444): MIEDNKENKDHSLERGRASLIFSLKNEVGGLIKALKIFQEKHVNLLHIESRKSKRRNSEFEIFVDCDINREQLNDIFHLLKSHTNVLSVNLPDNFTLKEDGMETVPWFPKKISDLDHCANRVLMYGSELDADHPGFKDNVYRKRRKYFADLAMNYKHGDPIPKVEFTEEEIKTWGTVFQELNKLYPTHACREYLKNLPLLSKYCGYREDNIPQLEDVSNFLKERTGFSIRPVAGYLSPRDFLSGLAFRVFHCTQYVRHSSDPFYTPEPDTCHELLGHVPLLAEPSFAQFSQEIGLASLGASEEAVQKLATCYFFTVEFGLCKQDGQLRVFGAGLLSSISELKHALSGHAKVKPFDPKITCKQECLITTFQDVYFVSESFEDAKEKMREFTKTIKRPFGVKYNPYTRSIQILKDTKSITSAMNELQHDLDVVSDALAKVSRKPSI
The assay can be described thus: TPH1 in vitro inhibition assay (kinetic fluorescence). Particulars: read-out: TPH1 Range (TPH1 inhibition IC50). The format is biochemical. The text has this:
Recombinant human TPH1 (rTPH1 GenBank™ accession no. NP_004179) was expressed by cloning full length human TPH1 cDNA in to a bacterial pMAL-c5E expression vector to produce maltose-binding protein (MBP) TPH1 fusion proteins. E. coli BL21 (DE3) containing pMAL-c5E-TPH1 was used for protein generation and the recombinant protein was purified utilizing standard column chromatography techniques. The MBP tagged TPH1 (MBP-TPH1) was used directly to screen compounds as described below. Recombinant human TPH2 (rTPH2 GenBank™ accession no. 173353), PheOH (rPheOH GenBank™ accession no. K03020) and TH (rTH GenBank™ accession no. L20679) with an MBP tag were produced similarly.
TPH1 activities were measured in an assay containing 200 mM ammonium sulfate, 7 mM DTT, 50 μg/mL catalase, 25 μM ammonium iron sulfate, 50 mM MES, pH 7.1. Test compounds were diluted in 100% DMSO and added to the assay plate in 1 μL aliquots at 100× final concentration. Fifty microliters of assay buffer containing 30 nM TPH1 enzyme (MBP tagged) were added to the plate wells containing the test compound by the use of an Eppendorf repeater pipette. The reaction was initiated by the addition of 50 μL of assay buffer containing 60 μM tryptophan and 72 μM 6-6-methyltetra-hydropterin (2× final concentration) by the use of a Multidrop (LabSystems). Final reaction conditions were 15 nM TPH1 enzyme, 30 μM tryptophan, 36 μM 6-methyltetra-hydropterin, 200 mM ammonium sulfate, 7 mM DTT, […], 25 μM ferrous ammonium sulfate, 50 mM MES, pH 7.1, with atmospheric oxygen at room temperature. The plate was immediately placed onto an M5 plate reader (Molecular Devices) for kinetic fluorescence measurement using an excitation setting of 300 nm and an emission setting of 335 nm. Fluorescence reads are recorded in kinetic mode for 300 seconds (5 minutes).
Kinetic assay data for compounds at specific concentrations was translated into slopes using the Softmax Pro software on a Spectramax reader, and compound inhibition slopes were compared with wells containing enzyme, substrate and cofactor in the absence of inhibitor (100%), and wells containing substrate and cofactor in the absence of enzyme (0%). DMSO concentration in the assay was 1%. […] IC50's were determined using Graphpad Prism.

Each structure is given as a SMILES string. pIC50: −log10 of the molar value. Values joined by “and” are separate entries in the source; they are usually repeats but may differ in a detail not shown here. Equal entries are not always repeated. Bounds are passed on as bounds.

With `Cc1ccn(-c2cc(-c3ccc(F)c(Cl)c3)ccc2[C@@H](Oc2cc(N3CCC4(CC3)CN[C@H](C(=O)O)C4)nc(N)n2)C(F)(F)F)n1` [Example 1ar, (S)-8-(2-amino-6-((R)-1-(3′-chloro-4′-fluoro-3-(3-methyl-1H-pyrazol-1-yl)-[1,1′-biphenyl]-4-yl)-2,2,2-trifluoroethoxy)pyrimidin-4-yl)-2,8-diazaspiro[4.5]decane-3-carboxylic acid], the pIC50 is 6.52 to 7.30.
Turning to `Cc1ccn(-c2cc(-c3cccc(OC(F)(F)F)c3)ccc2[C@@H](Oc2cc(N3CCC4(CC3)CN[C@H](C(=O)O)C4)nc(N)n2)C(F)(F)F)n1` [Example 1as, (S)-8-(2-amino-6-((R)-2,2,2-trifluoro-1-(3-(3-methyl-1H-pyrazol-1-yl)-3'-(trifluoromethoxy)-[1,1′-biphenyl]-4-yl)ethoxy)pyrimidin-4-yl)-2,8-diazaspiro[4.5]decane-3-carboxylic acid], the negative-log IC50 (pIC50) is more than 7.30.
For `Cc1cc(C)cc(-c2ccc([C@@H](Oc3cc(N4CCC5(CC4)CN[C@H](C(=O)O)C5)nc(N)n3)C(F)(F)F)c(-n3ccc(C)n3)c2)c1` [Example 1at, (S)-8-(2-amino-6-((R)-1-(3′,5′-dimethyl-3-(3-methyl-1H-pyrazol-1-yl)-[1,1′-biphenyl]-4-yl)-2,2,2-trifluoroethoxy)pyrimidin-4-yl)-2,8-diazaspiro[4.5]decane-3-carboxylic acid], the negative-log IC50 (pIC50) is more than 7.30.
The figure for `Cc1ccn(-c2cc(-c3ccc(F)c(F)c3)ccc2[C@@H](Oc2cc(N3CCC4(CC3)CN[C@H](C(=O)O)C4)nc(N)n2)C(F)(F)F)n1` [Example 1au, (S)-8-(2-amino-6-((R)-1-(3′,4′-difluoro-3-(3-methyl-1H-pyrazol-1-yl)-[1,1′-biphenyl]-4-yl)-2,2,2-trifluoroethoxy)pyrimidin-4-yl)-2,8-diazaspiro[4.5]decane-3-carboxylic acid] is 6.52 to 7.30; for `Cc1ccn(-c2cc(-c3ccc(F)c(C(F)(F)F)c3)ccc2[C@@H](Oc2cc(N3CCC4(CC3)CN[C@H](C(=O)O)C4)nc(N)n2)C(F)(F)F)n1` [Example 1aw, (S)-8-(2-amino-6-((R)-2,2,2-trifluoro-1-(4′-fluoro-3-(3-methyl-1H-pyrazol-1-yl)-3′-(trifluoromethyl)-[1,1′-biphenyl]-4-yl)ethoxy)pyrimidin-4-yl)-2,8-diazaspiro[4.5]decane-3-carboxylic acid] it is 6.52 to 7.30; for `Cc1ccn(-c2cc(-c3ccc(OC(C)C)c(F)c3)ccc2[C@@H](Oc2cc(N3CCC4(CC3)CN[C@H](C(=O)O)C4)nc(N)n2)C(F)(F)F)n1` [Example 1ax, (S)-8-(2-amino-6-((R)-2,2,2-trifluoro-1-(3′-fluoro-4′-isopropoxy-3-(3-methyl-1H-pyrazol-1-yl)-[1,1′-biphenyl]-4-yl)ethoxy)pyrimidin-4-yl)-2,8-diazaspiro[4.5]decane-3-carboxylic acid] it is more than 7.30.
For `CCOc1cc(F)cc(-c2ccc([C@@H](Oc3cc(N4CCC5(CC4)CN[C@H](C(=O)O)C5)nc(N)n3)C(F)(F)F)c(-n3ccc(C)n3)c2)c1` [Example 1ay, (S)-8-(2-amino-6-((R)-1-(3′-ethoxy-5′-fluoro-3-(3-methyl-1H-pyrazol-1-yl)-[1,1′-biphenyl]-4-yl)-2,2,2-trifluoroethoxy)pyrimidin-4-yl)-2,8-diazaspiro[4.5]decane-3-carboxylic acid] the value was > 7.30 and 6.52 to 7.30.
Turning to `Cc1ccn(-c2cc(-c3cccc(C(C)(C)C)c3)ccc2[C@@H](Oc2cc(N3CCC4(CC3)CN[C@H](C(=O)O)C4)nc(N)n2)C(F)(F)F)n1` [Example 1az, (S)-8-(2-amino-6-((R)-1-(3′-(tert-butyl)-3-(3-methyl-1H-pyrazol-1-yl)-[1,1′-biphenyl]-4-yl)-2,2,2-trifluoroethoxy)pyrimidin-4-yl)-2,8-diazaspiro[4.5]decane-3-carboxylic acid], the negative logarithm of the IC50 (pIC50) was 6.52 to 7.30.
For `CSc1ccc(-c2ccc([C@@H](Oc3cc(N4CCC5(CC4)CN[C@H](C(=O)O)C5)nc(N)n3)C(F)(F)F)c(-n3ccc(C)n3)c2)cc1` [Example 1b, (S)-8-(2-amino-6-((R)-2,2,2-trifluoro-1-(3-(3-methyl-1H-pyrazol-1-yl)-4′-(methylthio)-[1,1′-biphenyl]-4-yl)ethoxy)pyrimidin-4-yl)-2,8-diazaspiro[4.5]decane-3-carboxylic acid] the value was more than 7.30.
The figure for `Cc1ccn(-c2cc(-c3ccc(F)c(C)c3)ccc2[C@@H](Oc2cc(N3CCC4(CC3)CN[C@H](C(=O)O)C4)nc(N)n2)C(F)(F)F)n1` [Example 1ba, (S)-8-(2-amino-6-((R)-2,2,2-trifluoro-1-(4′-fluoro-3′-methyl-3-(3-methyl-1H-pyrazol-1-yl)-[1,1′-biphenyl]-4-yl)ethoxy)pyrimidin-4-yl)-2,8-diazaspiro[4.5]decane-3-carboxylic acid] is more than 7.30; for `Cc1ccn(-c2cc(-c3cccc(C(C)C)c3)ccc2[C@@H](Oc2cc(N3CCC4(CC3)CN[C@H](C(=O)O)C4)nc(N)n2)C(F)(F)F)n1` [Example 1bb, (S)-8-(2-amino-6-((R)-2,2,2-trifluoro-1-(3′-isopropyl-3-(3-methyl-1H-pyrazol-1-yl)-[1,1′-biphenyl]-4-yl)ethoxy)pyrimidin-4-yl)-2,8-diazaspiro[4.5]decane-3-carboxylic acid] it is more than 7.30.
Take `Cc1ccn(-c2cc(-c3cccc(OC(C)C)c3)ccc2[C@@H](Oc2cc(N3CCC4(CC3)CN[C@H](C(=O)O)C4)nc(N)n2)C(F)(F)F)n1` [Example 1bc, (S)-8-(2-amino-6-((R)-2,2,2-trifluoro-1-(3′-isopropoxy-3-(3-methyl-1H-pyrazol-1-yl)-[1,1′-biphenyl]-4-yl)ethoxy)pyrimidin-4-yl)-2,8-diazaspiro[4.5]decane-3-carboxylic acid]: the negative logarithm of the IC50 (pIC50) was more than 7.30.
Regarding `Cc1ccn(-c2cc(-c3ccc(Cl)c(C)c3)ccc2[C@@H](Oc2cc(N3CCC4(CC3)CN[C@H](C(=O)O)C4)nc(N)n2)C(F)(F)F)n1` [Example 1bd, (S)-8-(2-amino-6-((R)-1-(4′-chloro-3′-methyl-3-(3-methyl-1H-pyrazol-1-yl)-[1,1′-biphenyl]-4-yl)-2,2,2-trifluoroethoxy)pyrimidin-4-yl)-2,8-diazaspiro[4.5]decane-3-carboxylic acid], the pIC50 is more than 7.30.
The figure for `Cc1ccn(-c2cc(-c3cccc(C(N)=O)c3)ccc2[C@@H](Oc2cc(N3CCC4(CC3)CN[C@H](C(=O)O)C4)nc(N)n2)C(F)(F)F)n1` [Example 1be, (S)-8-(2-amino-6-((R)-1-(3′-carbamoyl-3-(3-methyl-1H-pyrazol-1-yl)-[1,1′-biphenyl]-4-yl)-2,2,2-trifluoroethoxy)pyrimidin-4-yl)-2,8-diazaspiro[4.5]decane-3-carboxylic acid] is 6.52 to 7.30; for `Cc1ccn(-c2cc(-c3cc(C(F)(F)F)cc(C(F)(F)F)c3)ccc2[C@@H](Oc2cc(N3CCC4(CC3)CN[C@H](C(=O)O)C4)nc(N)n2)C(F)(F)F)n1` [Example 1bf, (S)-8-(2-amino-6-((R)-2,2,2-trifluoro-1-(3-(3-methyl-1H-pyrazol-1-yl)-3′,5′-bis(trifluoromethyl)-[1,1′-biphenyl]-4-yl)ethoxy)pyrimidin-4-yl)-2,8-diazaspiro[4.5]decane-3-carboxylic acid] it is 6.52 to 7.30.
